Drawing on patent publication US20150344407A1, “FENDILINE DERIVATIVES AND METHODS OF USE THEREOF” (THE BOARD OF REGENTS OF THE UNIVERSITY OF TEXAS SYSTEM, priority 2012, published 2015), this text covers inhibition and EC50 for 19 molecules.

Assay [1] relates to phosphorylated ERK, a protein activated downstream of K-ras. Briefly: Western immunoblotting for pERK (inhibition of ERK activation). It is filed as cell-based, canine. Particulars: Canis lupus familiaris; 4 μM compound, 48 hours, MDCK cells stably expressing GFP-tagged K-rasG12V; whole cell lysates; normalized to vehicle-treated control; read-out: % Inhibition of ERK activation when treated with 4 μM compound. How it is done:
(§1) To determine the effect of compounds on localization of K-ras, Mardine Darby canine kidney epithelial (MDCK) cells stably expressing GFP-tagged K-rasG12V (oncogenic K-ras) grown on cover slips were treated with vehicle or compound (4 μM) for 48 hours and fixed with 4% paraformaldehyde. The coverslips were mounted in Mowiol and imaged by confocal microscopy (Nikon A1) using a 60× objective. Images were analyzed by ImageJ software. Densitometric analysis was performed on images to determine the degree of K-ras mislocalization. To determine the effect of compounds on K-ras function, MDCK cells stably expressing GFP-tagged K-rasG12V were treated with vehicle or compound (4 μM) for 48 hours. Following treatment, whole cell lysates were prepared and subjected SDS-PAGE and western blotting to quantify the level of phosphorylated ERK, a protein activated downstream of K-ras. All calculations were normalized to vehicle-treated control.
Western Immunoblotting for pERK: 2×10^5 cells/well were seeded in 6-well cell culture plates. 24 h after seeding, fresh medium containing 1% vehicle (DMSO) or 4 μM test compound (1:100 dilution, such that DMSO was 1%) was added and incubated for 48 h. Cells were lysed in Buffer B (50 mM Tris [pH 7.5], 75 mM NaCl, 25 mM NaF, 5 mM MgCl2, 5 mM EGTA, 1 mM dithiothreitol, 100 μM NaVO4, 1% Nonidet P-40 plus protease inhibitors). SDS-PAGE and immunoblotting with the anti-phospho-p44/42 mitogen-activated protein kinase (MAPK) (ERK1/2) antibody was performed using 20 μg of each whole cell lysate. Signal was detected by enhanced chemiluminescence (SuperSignal; Pierce, Thermo Fisher Scientific, Rockford, Ill.) and imaged by FluorChemQ (Alpha Inotech, San Leandro, Calif.). Quantification of intensities was performed using FluorChemQ software. Results were normalized to vehicle-treated control.
Background: Immunoblotting shows a protein as a band on a membrane.

For assay [2], the target named is T1, GFP-tagged K-rasG12V (oncogenic K-ras) in MDCK cells (Homo sapiens, UniProt P01116, G12V).
T1 construct: mGFP-tagged full length oncogenic mutant K-Ras (GFP-K-RasG12V); expressed in transfected cells
Briefly: K-ras mislocalization, confocal fluorescence microscopy with densitometric analysis. In kind it is cell-based, canine. The following applies: 4 μM compound, 48 hours, MDCK cells stably expressing GFP-tagged K-rasG12V; normalized to vehicle-treated control; read-out: % Mislocalization of K-ras when treated with 4 μM compound. As for the experimental part: FIGS. 1 & 2—Representative images showing degree of K-ras mislocalization with compound treatment (images corresponds with column 3 of Table 2). MDCK cells stably expressing GFP-tagged K-rasG12V were treated with vehicle or compound (4 μM) for 48 hours and fixed with 4% paraformaldehyde. The coverslips were mounted in Mowiol and imaged by confocal microscopy (Nikon A1) using a 60× objective. The number above each image corresponds the fendiline derivative code.
as §1
Fluorescence microscopy: 2×10^5 or 1×10^5 cells/well were seeded in 6- or 12-well cell culture plates, respectively, containing glass coverslips. 24 h after seeding, fresh medium containing 1% vehicle (Dimethyl sulfoxide, DMSO) or 4 μM test compound (1:100 dilution, such that DMSO was 1%) was added and incubated for 48 h, following which the cells were fixed with 4% paraformaldehyde and coverslips were mounted in Mowiol. Cells were imaged in the GFP wavelength (488 nm) using a confocal microscope (Nikon A1) with 60× objective. Images were saved in tagged imaged file format (tiff) and analyzed by ImageJ software. The densitometric ratio of plasma membrane localized K-Ras versus total K-Ras was calculated and normalized to vehicle-treated control.

Assay [3] relates to MOH cells. Nature of the assay: Proliferation assay, pancreatic cancer cell line MOH. In kind it is cell-based. Particulars: 72 h, CyQUANT, oncogenic mutant K-Ras. From the text:
(§2) FIG. 5A-5E—Concentration-response curves of 42, 68, 70, 72 and 73 on proliferation of five pancreatic cancer cell lines. BxPC-3 expresses wild type K-Ras, whereas the others express oncogenic mutant K-Ras. […] EC50 values for their inhibitory effect are tabulated. ND means that the EC50 value could not be determined within the dose range tested. See also Table 5.
(§3) Cell lines: Madine Darby Canine Kidney epithelial cells (MDCK) stably co-expressing mGFP-tagged full length oncogenic mutant K-Ras (GFP-K-RasG12V) and mCherry-tagged to the amino acids 179-189 of H-RasC181S, C184S (mCherry-CAAX, localizes primarily to endomembranes) were grown in DMEM-high glucose/sodium pyruvate/10% FBS. The medium was supplemented with 1× Penicillin/Streptomycin for fluorescence microscopy assays, to avoid any microbial contamination from the test compounds added. KLE and Hec50 cells were maintained in DMEM-F-12 medium supplemented with 10% FBS. Hec-1A and Hec-1B cells were grown in McCoy's 5a medium supplemented with 10% FBS. ESS-1 cells were grown in RPMI 1640 medium supplemented with 20% FBS. MPanc96 cells were grown in DMEM supplemented with 10% FBS, MiaPaCa-2 cells in DMEM supplemented with 10% FBS and 2.5% horse serum and all other cell lines were grown in RPMI 1640 supplemented with 10% FBS. All cancer cell media were supplemented with 1× Penicillin/Streptomycin. All cell lines were grown at 37° C. with 5% CO2.
(§4) Proliferation Assay: Cells were seeded in 96-well plates. After 24 h, fresh growth medium supplemented with 0.1% vehicle (DMSO), or various concentrations of drugs was added and cells were grown for 72 h. Cell numbers were quantified using the CyQUANT® Cell Proliferation Assay Kit (Life Technologies), according to the manufacturer's protocol. Fluorescence measurement was used as a measure of live cell number.
(§5) Based upon the concentration-response curves of five different compounds (42, 68, 70, 72, and 73) were tested for their effects on cell proliferation of five different pancreatic cell lines. These experiments were carried out as described in the Methods and Materials section.

Assay [4] deals with MiaPaCa-2 cells. Nature of the assay: Proliferation assay, pancreatic cancer cell line MiaPaCa-2. The following applies: Homo sapiens, MIA PaCa-2; 72 h, CyQUANT; oncogenic mutant K-Ras. It is filed as cell-based.
Description: as §2, §3, §4, §5

Assay [5] concerns MPanc-96 cells. Briefly: Proliferation assay, pancreatic cancer cell line MPanc-96. In kind it is cell-based. Particulars: MPANC96; 72 h, CyQUANT; oncogenic mutant K-Ras.
Description: as §2, §3, §4, §5

Assay [6] relates to Hec50 cells. Briefly: Proliferation assay, endometrial cancer cell line Hec50. It is filed as cell-based. The following applies: 72 h, CyQUANT; Hec50 expresses oncogenic mutant K-Ras.
Description: (§6) FIG. 4A-4E—Concentration-response curves of 42, 68, 70, 72 and 73 on proliferation of five endometrial cancer cell lines. KLE and ESS-1 express wild type K-Ras and Hec-1A, Hec-1B and Hec50 express oncogenic mutant K-Ras. […] EC50 values for their inhibitory effect are tabulated. ND means that the EC50 value could not be determined within the dose range tested. See also Table 4.
as §3, §4
(§7) Based upon the concentration-response curves of five different compounds (42, 68, 70, 72, and 73) were tested for their effects on cell proliferation of five different endometrial cell lines. These experiments were carried out as described in the Methods and Materials section.

The subject of assay [7] is Hec-1A cells. Briefly: Proliferation assay, endometrial cancer cell line Hec-1A. The following applies: Homo sapiens; 72 h, CyQUANT; Hec-1A expresses oncogenic mutant K-Ras. It is filed as cell-based.
Description: as §6, §3, §4, §7

Assay [8] deals with HPAC cells. Nature of the assay: Proliferation assay, pancreatic cancer cell line HPAC. The following applies: Homo sapiens, 72 h, CyQUANT, oncogenic mutant K-Ras. In kind it is cell-based.
Description: as §2, §3, §4, §5

T1 sequence (P01116 1-188 isoform P01116-2 G12V): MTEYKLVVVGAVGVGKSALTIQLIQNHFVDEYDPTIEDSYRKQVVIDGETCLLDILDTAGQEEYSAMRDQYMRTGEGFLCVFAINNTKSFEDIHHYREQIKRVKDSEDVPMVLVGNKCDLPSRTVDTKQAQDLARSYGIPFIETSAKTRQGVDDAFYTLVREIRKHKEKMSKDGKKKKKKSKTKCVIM

As to `C[C@@H](NC/C=C/c1ccccc1)c1cccc2ccccc12` [Compound 34, (R,E)-N-(1-(naphthalen-1-yl)ethyl)-3-phenylprop-2-en-1-amine], the inhibition at 4 µM in assay [1] was 18.9%; in assay [2] it was 7.94%.
For `C[C@@H](NC/C=C/c1ccccc1)c1ccc2ccccc2c1` [Compound 35, (R,E)-N-(1-(naphthalen-2-yl)ethyl)-3-phenylprop-2-en-1-amine], in that order: -21.6% and 26.1%.
For `C/C=C(/CN[C@H](C)c1ccccc1)c1ccccc1` [Compound 37, (R,E)-2-phenyl-N-(1-phenylethyl)but-2-en-1-amine], in that order: 18.9% and 6.82%.
In the case of `C[C@@H](NCC1CCCCC1)c1ccccc1` [Compound 38, (R)—N-(cyclohexylmethyl)-1-phenylethanamine], the values for the inhibition at 4 µM in assay [1] and in assay [2] were 32.7% and 9.67%, respectively.
For `COC(=O)[C@@H](NC/C=C/c1ccccc1)c1ccccc1` [Compound 39, (S)-methyl 2-(cinnamylamino)-2-phenylacetate], in that order: -10.2% and 6.72%.
For `COC(=O)[C@H](NC/C=C/c1ccccc1)c1ccccc1` [Compound 40, (R)-methyl 2-(cinnamylamino)-2-phenylacetate], in that order: 11% and 9.46%.
For `COC(=O)[C@@H](NCC=C(c1ccccc1)c1ccccc1)c1ccccc1` [Compound 43, (S)-methyl 2-((3,3-diphenylallyl)amino)-2-phenylacetate], in that order: 38.4% and 30.1%.
In the case of `C[C@@H](NCC=C(c1ccccc1)c1ccccc1)c1ccc(Br)cc1` [Compound 44, (R)—N-(1-(4-bromophenyl)ethyl)-3,3-diphenylprop-2-en-1-amine], the inhibition at 4 µM in assay [1] and in assay [2] was 38.1% throughout.
Take `C[C@@H](NCC=C(c1ccccc1)c1ccccc1)c1ccc(F)cc1` [Compound 45, (R)—N-(1-(4-fluorophenyl)ethyl)-3,3-diphenylprop-2-en-1-amine]: the inhibition at 4 µM in assay [1] was 43.5%; in assay [2], 50%.
For `CC[C@@H](NCC=C(c1ccccc1)c1ccccc1)c1ccccc1` [Compound 46, (R)-3,3-diphenyl-N-(1-phenylpropyl)prop-2-en-1-amine], in that order: 54% and 37.5%.
For `C[C@@H](NCC=C(c1ccccc1)c1ccccc1)c1ccc([N+](=O)[O-])cc1` [Compound 47], in that order: 70.6% and 34%.
For `C[C@@H](NCC=C(c1ccccc1)c1ccccc1)c1ccc(N)cc1` [Compound 48, (R)-4-(1-((3,3-diphenylallyl)amino)ethyl)aniline], in that order: 53.5% and 28.2%.
As for `C[C@@H](NC/C=C(/c1ccccc1)c1ccc([N+](=O)[O-])cc1)c1ccccc1` [Compound 49, (R,Z)-3-(4-nitrophenyl)-3-phenyl-N-(1-phenylethyl)prop-2-en-1-amine], the figures for the inhibition at 4 µM in assay [1] and in assay [2] were 36.8% and 20.1%, respectively.
For `C[C@@H](NC/C=C(/c1ccccc1)c1ccc(N)cc1)c1ccccc1` [Compound 50, (R,Z)-4-(1-phenyl-3-((1-phenylethyl)amino)prop-1-en-1-yl)aniline], in that order: 22.6% and 6.61%.
With `C[C@@H](NC/C=C(\c1ccccc1)c1ccc([N+](=O)[O-])cc1)c1ccccc1` [Compound 55, (R,E)-3-(4-nitrophenyl)-3-phenyl-N-(1-phenylethyl)prop-2-en-1-amine], the inhibition at 4 µM was -36.6% in assay [1] and 12.3% in assay [2].
Consider `C[C@@H](NC/C=C(\c1ccccc1)c1ccc(N)cc1)c1ccccc1` [Compound 56, (R,E)-4-(1-phenyl-3-((1-phenylethyl)amino)prop-1-en-1-yl)aniline], for which the results for the inhibition at 4 µM in assay [1] and in assay [2] were -191% and 17.3%, respectively.
For `COC(=O)[C@H](NCC=C(c1ccccc1)c1ccccc1)c1ccc(F)cc1` [Compound 57, (R)-methyl 2-((3,3-diphenylallyl)amino)-2-(4-fluorophenyl)acetate], in that order: -105% and 12.7%.
For `C[C@@H](NCC=C1c2ccccc2C=Cc2ccccc21)c1ccc(F)cc1` [Compound 58, (R)—N-(2 (5H-dibenzo[a,d][7]annulen-5-ylidene)ethyl)-1-(4-fluorophenyl) ethanamine], in that order: -78.7% and 5.05%.
Broadly, the EC50 is the midpoint of the concentration-response curve. A high value points to lower potency in that assay. For the molecule `COc1ccc([C@@H](C)N(CC=C(c2ccccc2)c2ccccc2)CC=C(c2ccccc2)c2ccccc2)cc1` [Compound 68, (R)-N-(3,3-diphenylallyl)-N-(1-(4-methoxyphenyl)ethyl)-3,3-diphenylprop-2-en-1-amine], the EC50 in assay [3] came out at 0.931 µM; in assay [4] it was 1.15 µM; in assay [5], 0.911 µM; in assay [6], 0.00158 µM; in assay [7], 0.211 µM; in assay [8], 0.105 µM.
